Like-named read-outs stand apart in the source and are kept apart here.
Columns and labels:
[1] = tested on: human PASMC; experiment: Ca2+ dynamics and whole-cell Ca2+ currents in PASMC; format: cell-based
Procedure: (B) Summarized data showing the amplitude of increase in [Ca2+]cyt induced by application of 10 μM CPA in the absence (first peak) or presence (second peak) of 1.8 mM extracellular Ca2+ (n=44-54 PASMC). […] (D) Summarized data showing [Ca2+]cyt before (basal) and during (ATP) application of ATP in control and CHQ-treated PASMC. Means±SEM, *P<0.05. (E) Summarized data showing ATP-induced increases in [Ca2+]cyt in control and CHQ-treated PASMC. means±SEM *P<0.05. […] Means±SEM, *P<0.05. (G) The current-voltage (I-V) relationship curves constructed from current recordings in PASMC before (Cont), during (CHQ) and after (wash) application of CHQ.
(§1) Similarly. […] Additionally.

[2] = tested on: rings of rat PA
Procedure: Due to the key role of autophagy in the pathogenesis of many diseases, we (the inventors) were very interested in exploring the benefit of autophagy inhibition for other indications beyond cancer. […] Such experiments first quantified the vasorelaxant effect on rings of rat PA (FIG. 2). […] Similarly. […] Additionally. […] Rats were given a subcutaneous (s.c.) injection of 20 mg/kg SU5416 or vehicle, followed by hypoxia (SuHx) for 3 weeks (10% 02) and normoxia for an additional 2 weeks to elicit severe PH. […] The normoxic control group was exposed to room air only (21% 02) for a total of 5 weeks (Nor).

[3] = tested on: human PASMC; experiment: Autophagy markers P62 and LC3B in PASMC (Western blot, immunofluorescence); format: cell-based; settings: 20 μM, 24 h
From the text: as §1

[4] = tested on: HPH in rats; experiment: Development of HPH in rats (hypoxia 10% O2 for 21 days); format: in vivo, rat; settings: 50 mg/kg/day, hypoxia 21 days
From the text: (E) Representative H&E images of small PAs in Nor, Nor+CHQ, Hyp and Hyp+CHQ rats.
as §1

[5] = tested on: SuHx-PH rat model; experiment: Established PH in the SuHx rat model; format: in vivo; settings: 50 mg/kg/day for 2 weeks after 3 weeks SuHx
From the text: FIG. 9A-C. […] (A) Representative right ventricular pressure (RVP).
as §1

[6] = tested on: isolated perfused and ventilated lungs; experiment: PAP in isolated perfused and ventilated lungs (CHQ); settings: 200 μM, intrapulmonary application
Procedure: FIG. 5A-C. […] (A) Left, PAP in isolated perfused and ventilated lungs before, during and after repeated pulmonary arterial perfusion of 40 mM K+ (40K) solution.
as §1

[7] = clinical; settings: human, in vivo
[8] = Procedure: FIG. 13. […] Mice were treated with vehicle, ROC-325, or HCQ as indicated daily for 42 consecutive days. […] Mean±SD.
(§2) The majority of lysosomal proteases that control the autophagy-mediated degradation of proteins and organelles require a strict acidic pH microenvironment for their enzymatic activity. Based on this, lysosomal acidity is commonly used as a marker of autophagy status. We treated leukemia cells with ROC-325 and used LysoSensor Green to evaluate the effects of drug treatment on lysosomal pH.

[9] = Phase I clinical trial of HCQ with vorinostat, pharmacokinetic analyses; settings: humans
[10] = tested on: leukemia cells; experiment: LysoSensor Green lysosomal pH (confocal microscopy, FACS); format: cell-based; settings: 1 μM, 6 h
Procedure: FIG. 12. Treatment with ROC-325 leads to lysosomal deacidification. Cells were treated with 1 μM ROC-325 for 6 h, stained with Lysosensor Green and propidium iodide (PI, nuclear counterstain) and then visualized by confocal microscopy.
(§3) Example data from our published studies are shown here.

[11] = tested on: autophagy; experiment: Initial preclinical studies of potency against HCQ; settings: greater than HCQ
From the text: as §3

[12] = tested on: broad range of tumor types; settings: cited from earlier work
[13] = tested on: isolated perfused/ventilated mouse lungs; experiment: PAP in isolated perfused/ventilated mouse lungs (ROC-325); settings: intrapulmonary perfusion for 5 min, 40 mM K+
Procedure: (§4) FIG. 14A-E. ROC-325 has promising therapeutic activity in models of PH. A-C: in vivo intact animal experiments (ROC-325 was administered daily at 10 mg/kg for 4w). (A) Representative record showing right ventricular pressure (RVP) in control and ROC-treated rats during normoxia. […] (B) Representative record showing right ventricular pressure (RVP) in control rats, MCT-injected rats and MCT-injected rats treated with ROC. (C) Summarized data showing right ventricular systolic pressure (RVSP), a surrogate measure for pulmonary arterial systolic pressure ([…]), in control, MCT-rats (treated with vehicle) and MCT-rats treated with ROC. […] D-E: ex vivo experiment using isolated perfused/ventilated mouse lungs (ROC was applied via intrapulmonary perfusion for 5 min). (D) Representative record showing pulmonary arterial pressure (PAP) in isolated perfused/ventilated mouse lung before, during and after intrapulmonary arterial perfusion of 40 mM K+ (40K) in the absence or presence of ROC. (E) Summarized data showing 40K-induced increases in PAP before (control), during (ROC) and after (washout) application of ROC.
(§5) Finally, we tested the therapeutic benefit of ROC-325 in models of experimental PH (FIG. 14). ROC-325 was administered to rats daily at 10 mg/kg for 4w under normoxic and hypoxic conditions. […]

[14] = tested on: autophagy; experiment: Autophagy markers LC3B and p62 after ROC-325; format: cell-based
From the text: as §3

[15] = tested on: MCT-injected rats; experiment: RVP/RVSP in control and MCT-injected rats; format: in vivo, rat; settings: 10 mg/kg daily for 4w
Procedure: as §4, §5

[16] = Oral availability of ROC-325; settings: in vivo
From the text: as §3

[17] = tested on: MV4-11 cells; experiment: Transmission electron microscopy of autophagosomes; format: cell-based; settings: 1 μM
Procedure: FIG. 11. ROC-325 triggers the formation of autophagosomes with undegraded cargo. MV4-11 cells were treated with 1 μM ROC-325 as indicated and visualized by transmission electron microscopy (TEM).
as §3

[18] = tested on: renal proximal tubal endothelial cells (RPTEC)
From the text: as §2

[19] = tested on: normal human CD34+ bone marrow (BM) cells
From the text: as §2

SMILES: CCN(CC)CCCC(C)Nc1ccnc2cc(Cl)ccc12 (stereo not drawn) [CHQ, chloroquine]
- store-operated Ca2+ entry ([1]; 200 μM, 10 μM CPA): inhibits store-operated Ca2+ entry
- whole-cell Ca2+ currents ([1]; test pulse of +10 mV from −70 mV): reduces whole-cell Ca2+ currents
- role of the endothelium in the vasorelaxant effect ([2]; 200 μM, endothelium-intact or endothelium-denuded rings pre-constricted with 1 μM PE): endothelium independent
- effect of K+ channel blockade on pulmonary vasodilation ([2]; 200 μM, rings pretreated with paxilline, TEA or ChTX): does not affect the ability of CHQ to induce pulmonary vasodilation
- isometric tension in isolated PA rings ([2]; rings constricted with 1 μM phenylephrine (PE)): decreased isometric tension
- autophagy (p62 and LC3B) [3]: inhibited autophagy
- PA wall thickness [4]: reduced PA wall thickness
- right ventricular systolic pressure (RVSP) [4]: significantly reduced RVSP
- progression of established PH [5]: significant therapeutic benefit against established PH progression
- reversal of established PH [5]: partially reversed established PH
- 40K-induced increases in PAP [6]: could antagonize the 40K-induced increases in PAP
- pulmonary vasoconstriction induced by high K+ or hypoxia [6]: attenuates pulmonary vasoconstriction induced by high K+ concentrations or hypoxia

SMILES: CCN(CCO)CCCC(C)Nc1ccnc2cc(Cl)ccc12 (stereo not drawn) [HCQ, hydroxychloroquine]
- Cmax [7]: < 3000 nM
- mouse body weight ([8]; mouse, in vivo): No significant loss of mouse body weight
- maximum tolerated dose (MTD) [9]: 600 mg/day

SMILES: Cc1ccc(NCCN(C)CCNc2ccnc3cc(Cl)ccc23)c2c(=O)c3ccccc3sc12 [ROC-325]
- lysosomal pH (LysoSensor Green fluorescence) [10]: stimulated lysosomal deacidification
- potency relative to HCQ [11]: approximately 10 fold
- single agent anticancer activity compared to HCQ ([12]; broad range of tumor types): significantly superior single agent anticancer activity
- dose needed to inhibit autophagy compared to HCQ [12]: inhibits autophagy at significantly lower doses
- mouse body weight ([8]; daily for 42 consecutive days): No significant loss of mouse body weight
- tolerability ([8]; oral, daily, 42 days, mice): confirmed its tolerability
- high K+-induced pulmonary vasoconstriction (PAP) [13]: acutely inhibits high K+-induced pulmonary vasoconstriction
- autophagy marker LC3B [14]: stimulated the autophagy marker LC3B
- p62 [14]: accumulation of p62
- basal hemodynamics (RVP) in control rats [15]: no effect on basal hemodynamics
- development of experimental PH (RVSP) ([15]; MCT-injected rats): significantly inhibited the development of experimental PH
- oral bioavailability [16]: orally bioavailable
- autophagosomes with undegraded cargo (TEM) [17]: triggered the accumulation of autophagosomes with undegraded cargo
- therapeutic selectivity [18]: strong therapeutic selectivity
- therapeutic selectivity [19]: strong therapeutic selectivity

Reference: patent US20240374580A1, “SMALL MOLECULE INHIBITORS OF AUTOPHAGY AND HISTONE DEACTYLASES AND USES THEREOF” (priority 2021, published 2024)
